Experimental data from patent US20070004634A1 (Novo Nordisk A/S, priority 1998, published 2007).
No end group written: not given here.

Columns and labels:
[1] = test system: free fat cells (adipocytes); experiment: Adipocyte / free fat cell (FFC) assay, 3H glucose incorporation into lipid; conditions: FFC assay potency grade; 0, + to ++++++, −
Experimental: Incorporation of ^3H into the lipid phase was determined by partitioning of lipid phase into a scintillant mixture, which excludes water-soluble ^3H products.

IR = IR (Homo sapiens, UniProt P06213); experiment: Phage ELISA, binding of phage clones to IR (ratio over background); conditions: ratio of IR divided by ratio of IGF-1R
Experimental: (§1) HIT indicates binder; CAND indicates binder candidate; LDH indicates binding to lactate dehydrogenase (negative control); Sp/Irr indicates the ratio of specific binding over non-specific binding.
(§2) Sp/Irr=the ratio of specific binding over non-specific binding; LDH=lactate dehydrogenase (negative control).
(§3) For phage pools, cells from frozen stocks were grown and phage were prepared as described above. For analysis of individual clones, colonies were picked and phage prepared as described above. Subsequent steps were the same for pooled and clonal phage. Microtiter wells were coated and blocked as described above. […] Phage resuspended in MPBS (PBS containing 2% non-fat milk) were added to wells (100 μl/well) and incubated at room temperature for 1 h. The phage solution was then removed, and the wells were washed three times with PBS at room temperature.
(§4) Anti-M13 antibody conjugated to horseradish peroxidase (Pharmacia Biotech) was diluted 1:3000 in MPBS and added to each well (100 μl/well). Incubation was for another hour at room temperature, followed by PBS washes as described. Color was developed by addition of ABTS solution (100 μl/well; Boehringer). […] Data points were averaged after subtraction of appropriate blanks. A clone was considered “positive” if the A405 of the well was ≧2-fold over background.

IGF-1R = IGF-1R (Homo sapiens, UniProt P08069); experiment: Phage ELISA, binding of phage clones to IGF-1R (ratio over background); conditions: ratio of IGF-1R divided by ratio of IR
Experimental: as §1, §2, §3, §4

Row | Comparisons IR/IGF-1R (IR) | Comparisons IGF-1R/IR (IGF-1R) | Compound | FFC [1]
1 |  |  | CC(C)[C@H](NC(=O)[C@H](Cc1ccccc1)NC(=O)[C@H](Cc1c[nH]c2ccccc12)NC(=O)[C@H](CC(=O)O)NC(=O)[C@H](Cc1ccc(O)cc1)NC(=O)[C@H](Cc1ccccc1)NC(=O)[C@H](CC(N)=O)NC(=O)[C@H](CCC(=O)O)NC(=O)[C@H](Cc1c[nH]cn1)NC(=O)[C@@H](N)Cc1ccccc1)C(=O)N[C@@H](CCCNC(=N)N)C(=O)N[C@@H](CCC(N)=O)C(=O)N[C@H](C(=O)N[C@@H](CO)C(=O)N[C@@H](CCCCN)C(=O)N[C@@H](CCCCN)C(=O)NC[C@H](NC(=O)[C@H](CCCCN)NC(=O)[C@H](CCCCN)NC(=O)[C@H](CO)NC(=O)[C@@H](NC(=O)[C@H](CCC(N)=O)NC(=O)[C@H](CCCNC(=N)N)NC(=O)[C@@H](NC(=O)[C@H](Cc1ccccc1)NC(=O)[C@H](Cc1c[nH]c2ccccc12)NC(=O)[C@H](CC(=O)O)NC(=O)[C@H](Cc1ccc(O)cc1)NC(=O)[C@H](Cc1ccccc1)NC(=O)[C@H](CC(N)=O)NC(=O)[C@H](CCC(=O)O)NC(=O)[C@H](Cc1c[nH]cn1)NC(=O)[C@@H](N)Cc1ccccc1)C(C)C)C(C)C)C(=O)O)C(C)C [Peptide S128] | ++
2 |  |  | CC(C)[C@H](NC(=O)[C@H](Cc1ccccc1)NC(=O)[C@H](Cc1c[nH]c2ccccc12)NC(=O)[C@H](CC(=O)O)NC(=O)[C@H](Cc1ccc(O)cc1)NC(=O)[C@H](Cc1ccccc1)NC(=O)[C@H](CC(N)=O)NC(=O)[C@H](CCC(=O)O)NC(=O)[C@H](Cc1c[nH]cn1)NC(=O)[C@@H](N)Cc1ccccc1)C(=O)N[C@@H](CCCNC(=N)N)C(=O)N[C@@H](CCC(N)=O)C(=O)N[C@H](C(=O)N[C@@H](CO)C(=O)N[C@@H](CCCCN)C(=O)N[C@@H](CCCCN)C(=O)NCCCC[C@H](NC(=O)[C@H](CCCCN)NC(=O)[C@H](CCCCN)NC(=O)[C@H](CO)NC(=O)[C@@H](NC(=O)[C@H](CCC(N)=O)NC(=O)[C@H](CCCNC(=N)N)NC(=O)[C@@H](NC(=O)[C@H](Cc1ccccc1)NC(=O)[C@H](Cc1c[nH]c2ccccc12)NC(=O)[C@H](CC(=O)O)NC(=O)[C@H](Cc1ccc(O)cc1)NC(=O)[C@H](Cc1ccccc1)NC(=O)[C@H](CC(N)=O)NC(=O)[C@H](CCC(=O)O)NC(=O)[C@H](Cc1c[nH]cn1)NC(=O)[C@@H](N)Cc1ccccc1)C(C)C)C(C)C)C(=O)O)C(C)C [Peptide S145] | ++
3 |  |  | CC(C)[C@H](NC(=O)[C@H](Cc1ccccc1)NC(=O)[C@H](Cc1c[nH]c2ccccc12)NC(=O)[C@H](CC(=O)O)NC(=O)[C@H](Cc1ccc(O)cc1)NC(=O)[C@H](Cc1ccccc1)NC(=O)[C@H](CC(N)=O)NC(=O)[C@H](CCC(=O)O)NC(=O)[C@H](Cc1c[nH]cn1)NC(=O)[C@H](Cc1ccccc1)NC(=O)[C@@H](N)CNC(=O)CON=CCCCCC=NOCC(=O)NC[C@H](N)C(=O)N[C@@H](Cc1ccccc1)C(=O)N[C@@H](Cc1c[nH]cn1)C(=O)N[C@@H](CCC(=O)O)C(=O)N[C@@H](CC(N)=O)C(=O)N[C@@H](Cc1ccccc1)C(=O)N[C@@H](Cc1ccc(O)cc1)C(=O)N[C@@H](CC(=O)O)C(=O)N[C@@H](Cc1c[nH]c2ccccc12)C(=O)N[C@@H](Cc1ccccc1)C(=O)N[C@H](C(=O)N[C@@H](CCCNC(=N)N)C(=O)N[C@@H](CCC(N)=O)C(=O)N[C@H](C(=O)N[C@@H](CO)C(=O)N[C@@H](CCCCN)C(=O)N[C@@H](CCCCN)C(N)=O)C(C)C)C(C)C)C(=O)N[C@@H](CCCNC(=N)N)C(=O)N[C@@H](CCC(N)=O)C(=O)N[C@H](C(=O)N[C@@H](CO)C(=O)N[C@@H](CCCCN)C(=O)N[C@@H](CCCCN)C(N)=O)C(C)C [Peptide S169] | ++
4 |  |  | CC(C)[C@H](NC(=O)[C@H](Cc1ccccc1)NC(=O)[C@H](Cc1c[nH]c2ccccc12)NC(=O)[C@H](CC(=O)O)NC(=O)[C@H](Cc1ccc(O)cc1)NC(=O)[C@H](Cc1ccccc1)NC(=O)[C@H](CC(N)=O)NC(=O)[C@H](CCC(=O)O)NC(=O)[C@H](Cc1c[nH]cn1)NC(=O)[C@H](Cc1ccccc1)NC(=O)[C@@H](N)CNC(=O)CON=CCCCCCCC=NOCC(=O)NC[C@H](N)C(=O)N[C@@H](Cc1ccccc1)C(=O)N[C@@H](Cc1c[nH]cn1)C(=O)N[C@@H](CCC(=O)O)C(=O)N[C@@H](CC(N)=O)C(=O)N[C@@H](Cc1ccccc1)C(=O)N[C@@H](Cc1ccc(O)cc1)C(=O)N[C@@H](CC(=O)O)C(=O)N[C@@H](Cc1c[nH]c2ccccc12)C(=O)N[C@@H](Cc1ccccc1)C(=O)N[C@H](C(=O)N[C@@H](CCCNC(=N)N)C(=O)N[C@@H](CCC(N)=O)C(=O)N[C@H](C(=O)N[C@@H](CO)C(=O)N[C@@H](CCCCN)C(=O)N[C@@H](CCCCN)C(N)=O)C(C)C)C(C)C)C(=O)N[C@@H](CCCNC(=N)N)C(=O)N[C@@H](CCC(N)=O)C(=O)N[C@H](C(=O)N[C@@H](CO)C(=O)N[C@@H](CCCCN)C(=O)N[C@@H](CCCCN)C(N)=O)C(C)C [Peptide S172] | +++
5 | 0.3 | 3.7 | RCGRELYHSTFYDWFDRQVAGRTCPS [H2CA-1-A7-IGFR] | 
6 | 0.1 | 11.0 | RCGRW*AEMGAGDDPFYHKLSELVCG (RCGRWXAEMGAGDDPFYHKLSELVCG; not fully specified; X: residue not identified in the source; cysteine pairing not given here) [Peptide B6Hα-2-C4-IR] | 
7 | 0.2 | 5.6 | RCQGTGFYTCIQELIGFGDPD [20E2B-4-H9-IGFR] | 
8 | 0.2 | 4.9 | RFDPFYSYFVNLLGASA [NNRPγ-4-A7-IR] | 
9 | 0.1 | 9.7 | RFSTDGFYQYLLALVGGGPVG [20E2B-1-A11-IGFR] | 
10 | 0.3 | 3.0 | RGAVAGFHDQFYDWFDRQVSRVHKFG [H2CA-4-H9-IGFR] | 
11 | 0.1 | 6.7 | RGIVAMVEATEVGSDHPFYHKLSELVQGS [Peptide B6Hα-2-C7-IR] | 
12 | 0.2 | 4.8 | RGKTAAVIVGRPADPFYHKLSELLQGG [Peptide B6Hα-3-E8-IR] | 
13 | 0.1 | 11.7 | RGMKEEVLVGGSTDPFYHKLSELLQGS [B6Hα-3-F11-IR] | 
14 | 0.1 | 17.3 | RGQSDAFYSGLWALIGLSDG [Peptide R20β-4-A6-IR] | 
15 | 0.1 | 16.6 | RLFYCGIQALGANLGYSGCV [R20α-4-20A12-IR] | 
16 | 0.1 | 7.0 | RQGTGSFYLMLEQLLVGARGP [20E2B-4-G11-IGFR] | 
17 | 0.1 | 9.4 | SACQFDCHENFYDWFARQVSGGAAYG [H2CA-4-H8-IGFR] | 
18 | 0.2 | 5.3 | SGAKVIVVTGDSGDPFYHKLSELLQGS [B6Hα-2-C10-IR] | 
19 | 0.3 | 3.3 | SQAGSAFYAWFDQVLRTVHSA [20E2Bβ-4-G6-IR] | 
20 | 0.3 | 3.3 | SRAKVEAEMPDSGDPFYHKLSELLASG [Peptide B6Hα-1-A3-IR] | 

Row | Comparisons IR/IGF-1R (IR) | Comparisons IGF-1R/IR (IGF-1R) | Compound | FFC [1]
21 | 0.3 | 3.1 | SRVAATKEKRPSDDPFYHKLSELLQGS [Peptide B6Hα-3-F7-IR] | 
22 | 0.2 | 4.8 | SSCDGAGHESFYEWFVRQVSGCRSV [H2CA-3-C8-IGFR] | 
23 | 0.3 | 3.0 | SSETAKMVTGTRDDPFYHKLSELVQGS [Peptide B6Hα-D8-IR] | 
24 | 0.2 | 4.1 | SSIGGGEHENFYDWFSRQLSQSPPLK [H2CA-4-F7-IGFR] | 
25 | 0.1 | 13.7 | SSYGCDGFYLMLFSLGLVASQELEC [20C-3-A1-IGFR] | 
26 | <0.1 | 27.0 | TFYSCLASLLTGTPQPNRGPWERCR [20C-3-G3-IGFR] | 
27 | 0.3 | 3.9 | TLDGGSFEEQFYDWFVRQLSYRTNPD [H2CA-4-G11-IGFR] | 
28 | 0.2 | 5.0 | TLRSPTFYDWLEMVLTHGQGG [20E2B-1-A8-IGFR] | 
29 | 0.4 | 2.5 | TSEVQRRSQDNFYDWFVAQVA [Peptide A6S-3-E2-IR] | 
30 | 0.1 | 7.3 | VATSQGFYSGLSELLQGGGNV [20E2B-3-E12-IGFR] | 
31 | 0.7 | 1.4 | VDTPAQVGWNRLWSVGPGEHWYTDDPFYH*LSELLRESGA [Peptide B6L-3-G6-IR] | 
32 | 0.4 | 2.6 | VERSASSQDGNFYDWFVVQIR [Peptide A6S-2-D1-IR] | 
33 | 0.1 | 12.3 | VGYQGQGDENFYDWFIRQVSGRLGVQ [H2CA-4-F5-IGFR] | 
34 | 0.2 | 5.9 | VNQSGSIHENFYDWFERQVSHQRGVR [H2CA-4-F10-IGFR] | 
35 | 0.1 | 9.4 | VVTPVNFYRALEALVRG.RLG (VVTPVNFYRALEALVRGXRLG; not fully specified; printed as VVTPVNFYRALEALVRG.RLG; X: residue not identified in the source; ends and bridges not checked) [20E2B-2-B11-IGFR] | 
36 | 0.1 | 11.7 | W.GYAWLS [40F-4-D10-IGFR] | 
37 | 0.1 | 13.0 | YRGMLVLGRISDGAG#VASEPPARIGRKVFAVNFYDWFV [Peptide A6L-0-E4-IR] | 
38 | 0.1 | 13.0 | YRGMLVLGRISGGAGKAASERPARIGQKVSAVNFYDWFV [Peptide A6L-0-H3-IR] | 
39 | 0.1 | 17.0 | YRGMLVLGRSSDGAGKVAFERPARIGQTVFAVNFYDWFV [Peptide A6L-0-E6-IR] | 
40 | 0.1 | 12.8 | YSCGDGFYSLLSDLLGGQFRC [20E2B-4-H12-IGFR] | 
